From US20240400507A1, “Substituted Indole Compounds and the Use Thereof” (TROBIO THERAPEUTICS PTY LTD, priority 2021, published 2024)
“Also recorded” adds a separate entry of the source.

molecular target: T1, Tpm4.2-containing actin microfilaments (Mus musculus, UniProt Q6IRU2); experiment: Disruption of Tpm4.2-containing actin microfilaments in PMEF cells, images assessed visually; format: cell-based; conditions: PMEF cells stably expressing Tpm4.2 labelled with the NeonGreen fluorophore (footnote a)
T1 construct: investigated in primary mouse embryonic fibroblast (PMEF) cells; endogenous in cells; host or cells: primary mouse embryonic fibroblast (PMEF) cells
T1 sequence (Q6IRU2 whole entry): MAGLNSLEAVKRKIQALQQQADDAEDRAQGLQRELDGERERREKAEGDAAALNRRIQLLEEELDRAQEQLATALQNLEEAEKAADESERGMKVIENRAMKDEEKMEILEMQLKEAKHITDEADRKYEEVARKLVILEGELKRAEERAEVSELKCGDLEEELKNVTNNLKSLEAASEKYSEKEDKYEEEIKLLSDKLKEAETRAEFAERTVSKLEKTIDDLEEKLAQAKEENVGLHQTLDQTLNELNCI

| Filament Disruption (minimum test concentration at which filament disruption was observed) | Structure (SMILES) |
| --- | --- |
| 4.0^a μM | CC(CO)(CO)NCCn1ccc2ccc(OCCc3ccccc3)cc21 [Compound 1, 2-((2-(6-phenethoxy-1H-indol-1-yI)ethyl)amino)-2-methylpropane-1,3-diol] |
| 4.0^a μM | CC(CO)(CO)NCCn1ccc2ccc(OCCc3ccccc3F)cc21 [Compound 2, 2-((2-(6-(2-fluorophenethoxy)-1H-indol-1-yl)ethyl)amino)-2-methylpropane-1,3-diol] |
| 4.0^a μM | CC(CO)(CO)NCCn1ccc2ccc(OCCc3cccc(F)c3)cc21 [Compound 3, 2-((2-(6-(3-fluorophenethoxy)-1H-indol-1-yl)ethyl)amino)-2-methylpropane-1,3-diol] |
| 3.0^a μM | CC(CO)(CO)NCCn1ccc2ccc(OCCc3ccc(F)cc3)cc21 [Compound 4, 2-((2-(6-(4-fluorophenethoxy)-1H-indol-1-yl)ethyl)amino)-2-methylpropane-1,3-diol] |

molecular target: T1, Tpm4.2-containing actin microfilaments; experiment: as above; format: cell-based; conditions: PMEF cells, treatment versus control condition
Description: Example 2—Anti-tropomyosin activity of compounds of formula (I) The ability of compounds of the disclosure to disrupt Tpm4.2-containing actin microfilaments was investigated in primary mouse embryonic fibroblast (PMEF) cells. Cells were seeded at 3×10^4 cells per well in a volume of 1000 μL complete media onto a 12 well plate containing 13 mm coverslips and left to plate down for 24 hours prior to treatment. Cells were then treated with DMSO and two concentrations of the test compounds. 24 hours post-treatment, cells were fixed with 16% paraformaldehyde (PBS) and stained with rabbit polyclonal anti-tropomyosin 6/9d antibody to visualise Tpm4.2. Single plane images were obtained using the Olympus IX83 epi-fluorescence microscope. Ten fields of view were collected for both Tpm4.2 fluorophore and 488-Atto-Phalloidin with each treatment condition. The images were assessed visually to determine if the Tpm4.2 filament network had been disrupted under the treatment condition (Table 1).

| Structure (SMILES) | Effect on Tpm4.2 filament network in representative image (FIG. 1) |
| --- | --- |
| CC(CO)(CO)NCCn1ccc2ccc(NCCc3ccc(F)cc3)cc21 [Compound 13, 2-((2-(6-((4-fluorophenethyl)amino)-1H-indol-1-yl)ethyl)amino)-2-methylpropane-1,3-diol] | parallel filament bundles observed in the control condition are lost and punctate aggregations of Tpm4.2 are observed near the nucleus; also recorded: disruption of the Tpm4.2 filament network |

same assay, conditions: primary mouse embryonic fibroblast (PMEF) cells, 24 hours treatment, anti-tropomyosin antibody staining of Tpm4.2

| Filament Disruption (minimum test concentration at which filament disruption was observed) | Structure (SMILES) |
| --- | --- |
| 2.0 µM | CC(C)(CO)NCCn1ccc2ccc(OCCc3ccc(F)cc3)cc21 [Compound 5, 2-((2-(6-(4-fluorophenethoxy)-1H-indol-1-yl)ethyl)amino)-2-methylpropan-1-ol] |
| 4.0 µM | OCC(CO)NCCn1ccc2ccc(OCCc3ccc(F)cc3)cc21 [Compound 6, 2-((2-(6-(4-fluorophenethoxy)-1H-indol-1-yl)ethyl)amino)propane-1,3-diol] |
| 2.0 µM | C[C@@H](CO)NCCn1ccc2ccc(OCCc3ccc(F)cc3)cc21 [Compound 7, (S)-2-((2-(6-(4-fluorophenethoxy)-1H-indol-1-yl)ethyl)amino)propan-1-ol] |
| 2.0 µM | C[C@H](CO)NCCn1ccc2ccc(OCCc3ccc(F)cc3)cc21 [Compound 8, (R)-2-((2-(6-(4-fluorophenethoxy)-1H-indol-1-yl)ethyl)amino)propan-1-ol] |
| 4.0 µM | OCCNCCn1ccc2ccc(OCCc3ccc(F)cc3)cc21 [Compound 9, 2-((2-(6-(4-fluorophenethoxy)-1H-indol-1-yl)ethyl)amino)ethan-1-ol] |
| 2.0 µM | CC(C)(C)NCCn1ccc2ccc(OCCc3ccc(F)cc3)cc21 [Compound 10, N-(2-(6-(4-fluorophenethoxy)-1H-indol-1-yl)ethyl)-2-methylpropan-2-amine] |
| 9.0 µM | COCC(C)(COC)NCCn1ccc2ccc(OCCc3ccc(F)cc3)cc21 [Compound 12, N-(2-(6-(4-fluorophenethoxy)-1H-indol-1-yl)ethyl)-1,3-dimethoxy-2-methylpropan-2-amine] |

Further lines, the molecule ahead of its results:

| Structure (SMILES) | Filament Disruption (minimum test concentration at which filament disruption was observed) |
| --- | --- |
| Fc1ccc(CCOc2ccc3ccn(CCCN4CCOCC4)c3c2)cc1 [Compound 11, 4-(3-(6-(4-fluorophenethoxy)-1H-indol-1-yl)propyl)morpholine] | 20 µM |
| CC(CO)(CO)NCCn1ccc2ccc(NCCc3ccc(F)cc3)cc21 [Compound 13, 2-((2-(6-((4-fluorophenethyl)amino)-1H-indol-1-yl)ethyl)amino)-2-methylpropane-1,3-diol] | 2.0 µM |
| CC(CO)(CO)NCCn1ccc2ccc(C(=O)NCc3ccc(F)cc3)cc21 [Compound 14, 1-(2-((1,3-dihydroxy-2-methylpropan-2-yl)amino)ethyl)-N-(4-fluorobenzyl)-1H-indole-6-carboxamide] | 2.0 µM |
| CC(CO)(CO)NCCn1ccc2ccc(C(=O)OCc3ccc(F)cc3)cc21 [Compound 15, 4-fluorobenzyl 1-(2-((1,3-dihydroxy-2-methylpropan-2-yl)amino)ethyl)-1H-indole-6-carboxylate] | 6.5 µM |
| Cc1ccccc1CCOc1ccc2ccn(CCNC(C)(CO)CO)c2c1 [Compound 16, 2-methyl-2-((2-(6-(2-methylphenethoxy)-1H-indol-1-yl)ethyl)amino)propane-1,3-diol] | 7.5 µM |
| Cc1cccc(CCOc2ccc3ccn(CCNC(C)(CO)CO)c3c2)c1 [Compound 17, 2-methyl-2-((2-(6-(3-methylphenethoxy)-1H-indol-1-yl)ethyl)amino)propane-1,3-diol] | 2.0 µM |
| Cc1ccc(CCOc2ccc3ccn(CCNC(C)(CO)CO)c3c2)cc1 [Compound 18, 2-methyl-2-((2-(6-(4-methylphenethoxy)-1H-indol-1-yl)ethyl)amino)propane-1,3-diol] | 5.0 µM |
| COc1ccccc1CCOc1ccc2ccn(CCNC(C)(CO)CO)c2c1 [Compound 19, 2-methyl-2-((2-(6-(2-methoxyphenethoxy)-1H-indol-1-yl)ethyl)amino)propane-1,3-diol] | 7.0 µM |
| COc1cccc(CCOc2ccc3ccn(CCNC(C)(CO)CO)c3c2)c1 [Compound 20, 2-methyl-2-((2-(6-(3-methoxyphenethoxy)-1H-indol-1-yl)ethyl)amino)propane-1,3-diol] | 2.0 µM |
| COc1ccc(CCOc2ccc3ccn(CCNC(C)(CO)CO)c3c2)cc1 [Compound 21, 2-methyl-2-((2-(6-(4-methoxyphenethoxy)-1H-indol-1-yl)ethyl)amino)propane-1,3-diol] | 2.5 µM |
| CC(CO)(CO)NCCn1ccc2ccc(OCCc3ccccc3C(F)(F)F)cc21 [Compound 22, 2-methyl-2-((2-(6-(2-(trifluoromethyl)phenethoxy)-1H-indol-1-yl)ethyl)amino)propane-1,3-diol] | 2.5 µM |
| CC(CO)(CO)NCCn1ccc2ccc(OCCc3ccc(F)c(F)c3)cc21 [Compound 24, 2-methyl-2-((2-(6-(3,4-difluorophenethoxy)-1H-indol-1-yl)ethyl)amino)propane-1,3-diol] | 2.5 µM |
| Cc1ccc(CCOc2ccc3ccn(CCNC(C)(CO)CO)c3c2)cc1C [Compound 25, 2-methyl-2-((2-(6-(3,4-dimethylphenethoxy)-1H-indol-1-yl)ethyl)amino)propane-1,3-diol] | 2.5 µM |
